Patent US20050228046A1, “Alkylamine as an antimicrobial agent in ophthalmic compositions” (ADVANCED MEDICAL OPTICS, INC., priority 2004, published 2005)

Legend:
Experiment in all cases: Microbiology challenge test, log drop
Type in all cases: cell-based
Conditions in all cases: for Log drop at 6 hour: Table 6: Myristylamine 0.001 % w/w
[1] = system: Candida albicans, ATCC 10231
Method: (§1) The following is the procedure by which various antimicrobial agents and solutions are tested for their ability to reduce microbial loads over short periods of time, typically 24 hours and less. The procedure is a basic microbiology challenge test, which involves the inoculation of test product aliquots with a known number of viable cells of several test organisms, and assay for the survivors at various time intervals. The results are used to calculate log drops at soak times and construct kill-curves (graphs of survivors versus time) if desired.
(§2) Candida albicans, ATCC 10231, is one of five organisms specified per FDA and ISO/CLI tests for the testing of contact lens disinfectants (FDA Premarket Notification (510k) Guidance Document for Contact Lens Care Products, Appendix B, Apr. 1, 1997 and ISO/FDIS 14729: Ophthalmic optics-Contact lens care products-Microbiological requirements and test methods for products and regimens for hygienic management of contact lenses, January 2001). Contact lens disinfectants are also known as contact lens multi-purpose solutions when they are used for rinsing, cleaning, disinfection, storage and rewetting contact lenses. The five FDA/ISO specified test organisms are listed below: • Serratia marcescens, ATCC 13880 • Staphylococcus aureus, ATCC 6538 • Pseudomonas aeruginosa, ATCC 9027 • Candida albicans, ATCC 10231 • Fusarium solani, ATCC 36031
(§3) The specific test procedure for testing antimicrobial activity against the five FDA/ISO specified test organisms is as follows (C. albicans is provided as a specific example): Test samples are sterile-filtered through a 0.22 micron sterile filter into sterile plastic high density polyethylene bottles or plastic flasks. A 10-mL aliquot of test sample is aseptically transferred into a sterile polystyrene plastic test tube. Sterile saline (0.90 w/v % NaCl) with 0.05 w/v % Polysorbate 80 (SS+TWEEN) is transferred into a separate control tube. All samples and control are stored at 20-25° C. throughout the duration of the test.
(§4) Test cultures of Candida albicans, ATCC 10231 are prepared in the conventional manner. Candida albicans cultures are grown on agar slants from primary frozen, lyophilized or “Culti-loop®” cultures. Three mL of sterile 0.9% saline is used to gently dislodge culture growth from the agar surface. The resulting harvest is transferred to an appropriate screw cap test tube containing glass beads and vortexed for approximately one minute. The vortexed harvest is diluted as needed with sterile 0.9% saline to prepare the culture inoculum with a concentration of 1×10e8 CFU/mL. Fifty microliters of culture inoculum is added to 10.0 mL of each test sample and control, so that the final inoculum level is in the range of 1×10e5 to 1×10e6 CFU(colony forming units) per mL of Candida albicans, ATCC 10231. Each sample and control tube is vortexed briefly to disperse the inoculum. Contact time intervals for testing activity against Candida are typically 4 or 6 hours, to conform to the intended product label instructions for contact lens soak time.
(§5) Aerobic Plate Count Methods are performed in order to quantitate test samples for their levels of survivors. At appropriate assay times, 0.5 mL well-vortexed aliquots are removed from sample tubes and added to glass test tubes containing 4.5 mL Letheen Neutralizing Broth media (Berton, Dickinson and Company, Sparks, Md.). After a previously determined, validated neutralizing time period, these samples are diluted 10-fold through serial dilutions using glass test tubes containing 4.5 mL Letheen Neutralizing Broth media. Aliquots of 0.1 mL are removed from each dilution tube and spread-plate applied to agar plates containing Sabouraud Dextrose Agar (SAB)(Berton, Dickinson and Company, Sparks, Md.). 10^1 to 10^4 CFU/mL survivor levels are quantitated. […]

[2] = system: Fusarium solani, ATCC 36031
Method: as §1, §2, §3, §4, §5

[3] = system: Pseudomonas aeruginosa, ATCC 9027
Method: as §1, §2, §3, §4, §5

[4] = system: Staphylococcus aureus, ATCC 6538
Method: as §1, §2, §3, §4, §5

[5] = Table 2A: Myristylamine 0.0003 % w/w, Tetronic 1307 0.05, pH 7.8
[6] = Table 2A: Myristylamine 0.0005 % w/w, Tetronic 1307 0.05, pH 7.8
[7] = Table 3: Myristylamine 0.0005 w/v % with WSCP 0.001, NaClO2 0.01, NaCitrate 0.4, T1307 0.05
[8] = Table 3: Myristylamine 0.0005 w/v %, WSCP 0.0, NaClO2 0.0, NaCitrate 0.0, T1307 0.05
[9] = Table 4: Myristylamine 0.0003 w/v % with PHMB 0.00003, Tetronic 1107 0.05, pH 7.8
[10] = Table 4: Myristylamine 0.0003 w/v %, PHMB 0, Tetronic 1107 0.05, pH 7.8
[11] = Table 5: Myristylamine 0.0005 w/v % with Polyquaternium-1 0.001, NaCitrate 0.6, Tetronic 1304 0.05, pH 7.8
[12] = Tween 80 0.0074, Polyquaternium-1 0, pH 7.3, 6 hour
[13] = Tween 80 0.0074, with Polyquaternium-1 0.000075, pH 7.3, 6 hour

Question: With `CCCCCCCCCCCCCCN` [Myristylamine] as the molecule, how does the “Log Drop” value [1, 5] read?
Answer: The value was 3.67.

Question: What about the “Log Drop” value [1, 6] of the same molecule?
Answer: Its value is 4.41.

Question: What about the “Log Drop” value [1, 7] of the same molecule?
Answer: Its value is 2.95.

Question: And the “Log Drop” value [1, 8]?
Answer: The value was 3.29.

Question: What about the “Log Drop” value [1, 9] of the same molecule?
Answer: Its value is 3.31.

Question: What about the “Log Drop” value [1, 10] of the same molecule?
Answer: Its value is 3.67.

Question: And the “Log Drop” value [1, 11]?
Answer: The value was 4.52.

Question: What about the “Log drop at 6 hour” value [1, 12] of the same molecule?
Answer: Its value is >4.67.

Question: And the “Log drop at 6 hour” value [1, 13]?
Answer: The value was >4.67.

Question: And the “antimicrobial activity against C. albicans” value ([1]; result in words, Table 2A data)?
Answer: The value was “strong antimicrobial activity against C. albicans”.

Question: What about the “Log Drop” value [2, 5] of the same molecule?
Answer: The value was >4.34.

Question: What about the “Log Drop” value [2, 6] of the same molecule?
Answer: Its value is >4.34.

Question: And the “Log Drop” value [2, 7]?
Answer: The value was >4.34.

Question: What about the “Log Drop” value [2, 8] of the same molecule?
Answer: Its value is >4.34.

Question: And the “Log Drop” value [2, 9]?
Answer: Its value is >4.34.

Question: What about the “Log Drop” value [2, 10] of the same molecule?
Answer: The value was >4.34.

Question: What about the “Log Drop” value [2, 11] of the same molecule?
Answer: Its value is >4.34.

Question: What about the “Log drop at 6 hour” value [2, 12] of the same molecule?
Answer: Its value is 3.73.

Question: And the “Log drop at 6 hour” value [2, 13]?
Answer: Its value is 3.12.

Question: What about the “Log Drop” value [3, 5] of the same molecule?
Answer: The value was >4.63.

Question: What about the “Log Drop” value [3, 6] of the same molecule?
Answer: Its value is >4.63.

Question: What about the “Log Drop” value [3, 7] of the same molecule?
Answer: The value was >4.63.

Question: And the “Log Drop” value [3, 8]?
Answer: The value was >4.63.

Question: What about the “Log Drop” value [3, 9] of the same molecule?
Answer: Its value is >4.63.

Question: What about the “Log Drop” value [3, 10] of the same molecule?
Answer: Its value is >4.63.

Question: And the “Log Drop” value [3, 11]?
Answer: Its value is >4.63.

Question: What about the “Log drop at 6 hour” value [3, 12] of the same molecule?
Answer: Its value is >4.58.

Question: And the “Log drop at 6 hour” value [3, 13]?
Answer: The value was >4.58.

Question: What about the “Log Drop” value [4, 5] of the same molecule?
Answer: The value was 2.87.

Question: What about the “Log Drop” value [4, 6] of the same molecule?
Answer: Its value is 4.8.

Question: What about the “Log Drop” value [4, 7] of the same molecule?
Answer: Its value is 3.74.

Question: What about the “Log Drop” value [4, 8] of the same molecule?
Answer: The value was 2.93.

Question: What about the “Log Drop” value [4, 9] of the same molecule?
Answer: The value was 4.21.

Question: And the “Log Drop” value [4, 10]?
Answer: Its value is 2.87.

Question: And the “Log Drop” value [4, 11]?
Answer: Its value is 4.69.

Question: What about the “Log drop at 6 hour” value [4, 12] of the same molecule?
Answer: The value was 1.04.

Question: What about the “Log drop at 6 hour” value [4, 13] of the same molecule?
Answer: The value was 3.21.
